We go through six compounds from publication PMC7914897, “Cytotoxic Potential of a-Azepano- and 3-Amino-3,4-SeCo-Triterpenoids” (International Journal of Molecular Sciences, 2021).

Molecules are shown by their SMILES. Read-outs that look alike come from different tables or passages of the source.

For one data set, the system named is SR (Leukemia). In words: NCI-60 screen (SRB, 48 h). It is filed as cell-based. Conditions: 1 dose 10 µM.
For data set [1], the system named is HT29 (colorectal carcinoma). Briefly: SRB cytotoxicity assay, 72 h. It is filed as cell-based, human. To be noted: Homo sapiens, HT-29; HT29, 72 h, cut-off 30 µM; read-out: EC50. As for the experimental part: (§1) The cytotoxicity of compounds 1–20 was evaluated by means of a colorimetric sulforhodamine B (SRB) assay. For all compounds, the EC50 values were determined for the human tumor cell lines A375 (malignant melanoma), HT29 (colorectal carcinoma), MCF-7 (breast carcinoma), A2780 (ovarian carcinoma), FaDu (hypopharyngeal carcinoma), and NIH 3T3 (non-malignant mouse fibroblasts).
(§2) In short, exponentially growing cells were seeded into 96-well plates on day 0 at the appropriate cell densities to prevent confluence of the cells during the period of experiment. After 24 h, the cells were treated with serial dilutions of the compounds (0–30 µM) for 72 h. The final concentration of DMSO never exceeded 0.5%, which was non-toxic to the cells. After a 72 h treatment, the supernatant medium from the 96-well plates was discarded, and the cells were fixed with 10% TCA. For a thorough fixation, the plates were allowed to rest at 4 °C. After fixation, the cells were washed in a strip washer. The washing was done four times with water using alternate dispensing and aspiration procedures. The plates were then dyed with 100 µL of 0.4% SRB for about 20 min. After dying, the plates were washed with 1% acetic acid to remove the excess of the dye and allowed to air-dry overnight. Tris base solution (200 µL, 10 mM) was added to each well and absorbance was measured at λ = 570 nm (using a 96 well plate reader, Tecan Spectra, Crailsheim, Germany). The percentages of surviving cells relative to untreated controls were determined.
On the technique in general: In SRB staining, fixed cells bind dye roughly in proportion to their protein.

For data set [2], the system named is A2780 (ovarian carcinoma). In words: SRB cytotoxicity assay, 72 h. Type of data set: cell-based, human. To be noted: Homo sapiens; A2780, 72 h, cut-off 30 µM; read-out: EC50. How it is done: as §1, §2
For data set [3], the system named is A375 (malignant melanoma). In words: SRB cytotoxicity assay, 72 h. It is filed as cell-based, human. To be noted: A375, 72 h, cut-off 30 µM, read-out: EC50. How it is done: as §1, §2
The subject of another data set is MCF-7 (breast carcinoma). Briefly: SRB cytotoxicity assay, 72 h. It is filed as cell-based, human. To be noted: Homo sapiens, MCF7; MCF-7, 72 h, cut-off 30 µM; read-out: EC50. As for the experimental part:
as §1, §2

Data set [4] has as its system FaDu (hypopharyngeal carcinoma). In words: SRB cytotoxicity assay, 72 h. It is filed as cell-based, human. To be noted: Homo sapiens, cut-off 30 µM, read-out: EC50. How it is done: as §1, §2
Data set [5] has as its system NIH 3T3 (non-malignant mouse fibroblasts). In words: SRB cytotoxicity assay, 72 h. Type of data set: cell-based. To be noted: Mus musculus, NIH3T3; NIH 3T3, 72 h, cut-off 30 µM; read-out: EC50. How it is done:
as §1, §2

Data set [6] concerns panel of approximately 60 cancer cell lines. Briefly: NCI-60 screen (SRB, 48 h), full panel. To be noted: for Positive Cytostatic Effect (cell lines with percent growth 0 to 50 / total) / Positive Cytotoxic Effect (cell lines with percent growth < 0 / total) / number of cancer cell lines the compound was active against: 1 dose 10 µM; for activity at 10 µM: Homo sapiens, 48 h.
The next data set concerns HT29 (Colon cancer). Briefly: NCI-60 screen (SRB, 48 h). To be noted: HT29, 1 dose 10 µM.
The subject of a further data set is CAKI-1 (Renal cancer). Briefly: NCI-60 screen (SRB, 48 h). To be noted: CAKI-1, 1 dose 10 µM.
The test system of the next data set is COLO 205 (Colon cancer). Briefly: NCI-60 screen (SRB, 48 h). Conditions: COLO 205, 1 dose 10 µM.

As usually defined, the EC50 is the midpoint of the concentration-response curve. `CC1(C)CC[C@]2(C(=O)NC(CO)Cc3ccccc3)CC[C@]3(C)C(=CC[C@@H]4[C@@]5(C)CCCNC(C)(C)[C@@H]5CC[C@]43C)[C@@H]2C1` (stereo partly shown) [Compound 13]: the “Growth % of the Most Sensitive Cell Lines” value (“Growth %” below) in the data set on SR (Leukemia) is −5.95%. Also, the concentration giving a half-maximal response (EC50) came out at 2.07 ± 0.1 µM in data set [1]; 4.15 ± 0.2 µM in data set [2]; 3.08 ± 0.1 µM in [3] (Homo sapiens, A-375, 72 h); 2.82 ± 0.3 µM in the data set with MCF-7 (breast carcinoma); 3.79 ± 0.3 µM in data set [4]; 3.08 ± 0.3 µM in [5]. Also, in data set [6], the “Positive Cytostatic Effect (cell lines with percent growth 0 to 50 / total)” value is on record as 10/60. Besides, the “Positive Cytotoxic Effect (cell lines with percent growth < 0 / total)” value in [6] is 1/60. Besides, the “number of cancer cell lines the compound was active against” value (“number” below) in [6] was 6 cell lines. For the same compound, the activity at 10 µM in data set [6] (read-out: Mean Growth, %) is 74.9%; in data set [6] (read-out: Range of Growth, %), -5.95 to 107%.
As for `CC(=O)[C@@H]1CC[C@]2(CO)CC[C@]3(C)[C@H](CC[C@@H]4[C@@]5(C)CCCNC(C)(C)[C@@H]5CC[C@]43C)[C@@H]12` [Compound 2, azepanomessagenin], the 50% effective concentration (EC50) was determined as 6.32 ± 0.4 µM in data set [1]; 7.71 ± 0.4 µM in data set [2]; 7.82 ± 0.3 µM in data set [3]; 7.92 µM in [3] (Homo sapiens, A-375, 72 h); 5.78 ± 0.7 µM in the data set with MCF-7 (breast carcinoma); 6.21 ± 1.2 µM in data set [4]. In [5], the EC50 was 8.03 ± 1.4 µM. In the data set with HT29 (Colon cancer), the “Growth %” value was 68.07%. The “Positive Cytostatic Effect (cell lines with percent growth 0 to 50 / total)” value in data set [6] is 0/59. In data set [6], the “number” value is “did not show antiproliferative activity”. Besides, the activity at 10 µM was 99.2% in data set [6] (read-out: Mean Growth, %) and 68.1 to 136% in [6] (read-out: Range of Growth, %).
`CC1(C)NCCC[C@]2(C)[C@H]3CC(=O)[C@H]4[C@@H]5C[C@@](C)(CO)CC[C@]5(C)CC[C@@]4(C)[C@]3(C)CC[C@@H]12` [Compound 17]: the EC50 in data set [1] is 5.01 ± 0.8 µM; in [2], 9.19 ± 0.5 µM; in data set [3] (Homo sapiens, A-375, 72 h), 6.35 ± 0.5 µM; with MCF-7 (breast carcinoma) it was 5.55 ± 0.6 µM; in [4], 6.36 ± 1.8 µM; in data set [5], 9.87 ± 1.3 µM. Further, in data set [6], the “Positive Cytostatic Effect (cell lines with percent growth 0 to 50 / total)” value is on record as 0/59. Also, the “Positive Cytotoxic Effect (cell lines with percent growth < 0 / total)” value in [6] was 0/59. The “number” value in data set [6] was “complete loss of cytotoxic activity”. Further, the activity at 10 µM in data set [6] (read-out: Mean Growth, %) is 95.5%; in [6] (read-out: Range of Growth, %), 51.6 to 118%. Moreover, in the data set on CAKI-1 (Renal cancer), the “Growth %” value worked out at 51.57%.
In the case of `C=C(C)[C@@H]1CC[C@]2(C(=O)NC3CCCCC3)CC[C@]3(C)[C@H](CC[C@@H]4[C@@]5(C)CCCNC(C)(C)[C@@H]5CC[C@]43C)[C@@H]12` [Compound 10], the EC50 in data set [1] stood at 0.98 ± 0.1 µM; in data set [2], 2.27 ± 0.4 µM; in data set [3] (Homo sapiens, A-375, 72 h), 2.18 ± 0.2 µM; with MCF-7 (breast carcinoma), 1.9 ± 0.1 µM; in data set [4], 2.04 ± 0.1 µM; in data set [5], 1.5 ± 0.2 µM.
On to `C=C(C)[C@@H]1CC[C@]2(C)[C@H](CC=C3[C@@H]4CC(C)(C)CC[C@]4(CO)CC[C@]32C)[C@@]1(C)CCCN` [Compound 18], for which the EC50 in data set [1] was 1.72 ± 0.2 µM; in [2] it was 4 ± 0.2 µM; in [3] (Homo sapiens, A-375, 72 h), 3.38 ± 0.2 µM; in the data set with MCF-7 (breast carcinoma) it was 2.65 ± 0.2 µM; in data set [4], 3.34 ± 0.3 µM; in [5], 4.02 ± 0.7 µM.
As to `CC1(C)NCCC[C@]2(C)[C@H]3CC=C4[C@@H]5C[C@@](C)(CO)CC[C@]5(C)CC[C@@]4(C)[C@]3(C)CC[C@@H]12` [Compound 5, azepano-glycyrretol], the “Growth %” value in the data set on SR (Leukemia) is −1.30%; in the data set on COLO 205 (Colon cancer), −4.98%. Moreover, the EC50 in data set [1] amounted to 3.97 ± 0.4 µM; in [2], 6.36 ± 0.6 µM; in data set [3] (Homo sapiens, A-375, 72 h) it was 5.69 ± 0.4 µM; in the data set on MCF-7 (breast carcinoma) it was 5.68 ± 0.5 µM; in data set [4], 4.81 ± 0.9 µM; in [5] it was 7.43 ± 1.2 µM. Besides, in data set [6], the “Positive Cytostatic Effect (cell lines with percent growth 0 to 50 / total)” value was 13/58. For the same compound, the “Positive Cytotoxic Effect (cell lines with percent growth < 0 / total)” value in data set [6] is given as 2/58. Also, in data set [6], the “number” value was 8 cell lines. The activity at 10 µM was 56.2% in data set [6] (read-out: Mean Growth, %) and -4.98 to 98.9% in [6] (read-out: Range of Growth, %).
